In patent EP3046573B1, “AMYLIN ANALOGUES” (Zealand Pharma A/S, priority 2013, dated 2015):
Like-named read-outs stand apart in the source and are kept apart here. Numbered stars: 1 amine (or outer) side, 2 acyl side, 3 side chain; on linkers, the order of the positions; unused ones are H or OH. Bridge positions count the residues as written; N and C are the ends. Square brackets hold non-standard residues; d marks the D form. Peptide text beside a SMILES is read from it. * marks the point of attachment. C20 diacid = O=C(O)CCCCCCCCCCCCCCCCCCC(=O)*; γGlu = O=C(O)[C@H](CCC(=O)[*:2])N[*:1]; NMeI = CC[C@H](C)[C@H](NC)C(=O)O; Sar = CNCC(=O)O

Key:
[1] = Solubility assessment (turbidity absorbance at 325 nm); format: physicochemical; conditions: stock 2 mg/ml diluted 1:1, ambient temperature (typically 25°C), n=1; for Solubility, Acetate buffer pH 4: 100 mM acetate buffer pH 4.0; for Solubility, Acetate buffer pH 5: 100 mM acetate buffer pH 5.0; for Solubility, Histidine buffer pH 6: 100 mM histidine buffer pH 6.0; for Solubility, Histidine buffer pH 7: 100 mM histidine buffer pH 7.0; for Solubility, Phosphate buffer pH 6: 100 mM phosphate buffer pH 6.0; for Solubility, Phosphate buffer pH 7: 100 mM phosphate buffer pH 7.0; for Solubility, Phosphate buffer pH 7.5: 100 mM phosphate buffer pH7.5
Method in brief: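 Peptide stock (2 mg/ml) in water acidified to pH 2.5 with HCl was diluted 1:1 into 100 mM acetate (pH 4.0, 5.0), histidine (pH 6.0, 7.0) or phosphate (pH 6.0, 7.0, 7.5) buffer. A280 and A325 were read at about 25°C, n=1. A325 ≤ 0.02 meant solubility ≥ 1 mg/ml.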

[2] = molecular target: T1, human calcitonin receptor (hCTR2) (Homo sapiens, UniProt P30988); test: hCTR2 assay: induction of cAMP (AlphaScreen cAMP Assay kit) in COS7 cells expressing hCTR2; format: cell-based
T1 construct: expressed in transfected cells
T1 sequence (P30988 25-474): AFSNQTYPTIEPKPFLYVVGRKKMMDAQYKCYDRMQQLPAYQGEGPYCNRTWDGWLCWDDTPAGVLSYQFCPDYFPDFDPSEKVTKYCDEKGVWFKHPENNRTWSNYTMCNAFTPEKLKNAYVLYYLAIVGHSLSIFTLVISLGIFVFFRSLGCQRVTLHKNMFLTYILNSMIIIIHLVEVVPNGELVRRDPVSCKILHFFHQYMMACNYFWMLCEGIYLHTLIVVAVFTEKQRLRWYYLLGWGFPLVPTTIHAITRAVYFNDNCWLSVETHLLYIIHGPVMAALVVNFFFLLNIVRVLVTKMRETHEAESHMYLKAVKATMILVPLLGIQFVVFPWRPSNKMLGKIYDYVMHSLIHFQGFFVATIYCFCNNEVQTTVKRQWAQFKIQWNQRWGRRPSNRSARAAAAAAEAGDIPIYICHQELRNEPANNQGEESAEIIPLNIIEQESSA
Method in brief: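 Stable hCTR2 clone in RAMP-naive COS7 cells; peptides titrated in Tyrode buffer (pH 7.4) with 100 µM IBMX, 0.1% casein, 15 min at 37° C. cAMP read by AlphaScreen after lysis; EC50 and efficacy relative to pramlintide from 4PL fit.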

[3] = molecular target: T2, human amylin receptor 3 (hAMYR3) consisting of hCTR2 co-expressed with human Receptor Activity Modifying Protein 3 (hRAMP3) (Homo sapiens, UniProt O60896+P30988); test: hAMYR3 assay: induction of cAMP (AlphaScreen cAMP Assay kit) in COS7 cells expressing hAMYR3; format: cell-based
T2 construct: expressed in transfected cells
T2 sequence (P30988 25-474): T1 sequence (P30988 25-474)
T2 sequence (O60896 24-148 partner): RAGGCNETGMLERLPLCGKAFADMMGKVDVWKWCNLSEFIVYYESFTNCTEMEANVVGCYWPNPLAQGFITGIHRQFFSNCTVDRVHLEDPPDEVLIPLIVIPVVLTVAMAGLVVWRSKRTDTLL
Method in brief: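 Stable COS7 clone co-expressing hCTR2 and hRAMP3, stimulated 15 min at 37° C with increasing peptide in Tyrode buffer pH 7.4 with 100 µM IBMX and 0.1% casein. cAMP measured by AlphaScreen after lysis; EC50 and % efficacy versus pramlintide from 4PL fit.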

CC[C@H](C)[C@@H](C(=O)N[C@@H](CC(C)C)C(=O)N[C@@H](CO)C(=O)N[C@@H](CO)C(=O)N[C@H](C(=O)N[C@@H](CC(N)=O)C(=O)N[C@H](C(=O)NCC(=O)N[C@@H](CO)C(=O)N[C@@H](CC(N)=O)C(=O)N[C@H](C(=O)N1CCC[C@H]1C(=O)NC)[C@@H](C)O)C(C)C)[C@@H](C)O)N(C)C(=O)[C@H](C)NC(=O)CN(C)C(=O)[C@H](Cc1ccccc1)NC(=O)[C@H](CC(N)=O)NC(=O)[C@H](CC(N)=O)NC(=O)[C@H](CO)NC(=O)[C@H](CO)NC(=O)[C@H](CCCNC(=N)N)NC(=O)[C@H](Cc1c[nH]cn1)NC(=O)[C@H](CC(C)C)NC(=O)[C@H](Cc1ccccc1)NC(=O)[C@H](CCC(=O)O)NC(=O)[C@H](C)NC(=O)[C@H](CC(C)C)NC(=O)[C@H](CCCNC(=N)N)NC(=O)[C@H](CCC(N)=O)NC(=O)[C@@H](NC(=O)[C@H](C)NC(=O)[C@@H]1CSSC[C@H](NC(=O)[C@H](CCCNC(=N)N)NC(=O)CC[C@H](NC(=O)CCCCCCCCCCCCCCCCCCC(=O)O)C(=O)O)C(=O)N[C@@H](CC(N)=O)C(=O)N[C@@H]([C@@H](C)O)C(=O)N[C@@H](C)C(=O)N[C@@H]([C@@H](C)O)C(=O)N1)[C@@H](C)O [Compound 152, [19CD]-isoGlu-RC()NTATC()ATQRLAEFLHRSSNNF-Gly(Me)-A-Ile(Me)-LSSTNVGSNTP-NHMe] ({C20 diacid-γGlu}-RCNTATCATQRLAEFLHRSSNNF[Sar]A[NMeI]LSSTNVGSNTP-NHMe; disulfide 2-7)
Solubility, Acetate buffer pH 4 [1]: SS (SS indicates solubility ≥ 1mg/ml) | Solubility, Acetate buffer pH 5 [1]: SS (SS indicates solubility ≥ 1mg/ml) | Solubility, Histidine buffer pH 6 [1]: SS (SS indicates solubility ≥ 1mg/ml) | Solubility, Histidine buffer pH 7 [1]: SS (SS indicates solubility ≥ 1mg/ml) | Solubility, Phosphate buffer pH 6 [1]: SS (SS indicates solubility ≥ 1mg/ml) | Solubility, Phosphate buffer pH 7 [1]: SS (SS indicates solubility ≥ 1mg/ml) | Solubility, Phosphate buffer pH 7.5 [1]: SS (SS indicates solubility ≥ 1mg/ml) | EC50 [2]: 950 pM | EC50 [3]: 5200 pM

CC[C@H](C)[C@H](NC(=O)[C@@H](NC(=O)[C@H](CC(N)=O)NC(=O)[C@H](CO)NC(=O)CNC(=O)[C@@H](NC(=O)[C@H](CC(N)=O)NC(=O)[C@@H](NC(=O)[C@H](CO)NC(=O)[C@H](CO)NC(=O)[C@H](CC(C)C)NC(=O)[C@H]([C@@H](C)CC)N(C)C(=O)[C@H](C)NC(=O)CN(C)C(=O)[C@H](Cc1ccccc1)NC(=O)[C@H](CC(N)=O)NC(=O)[C@H](CC(N)=O)NC(=O)[C@H](CO)NC(=O)[C@H](CO)NC(=O)[C@H](CCCNC(=N)N)NC(=O)[C@H](Cc1c[nH]cn1)NC(=O)[C@H](CC(C)C)NC(=O)[C@H](Cc1ccccc1)NC(=O)[C@H](CCC(=O)O)NC(=O)[C@H](C)NC(=O)[C@H](CC(C)C)NC(=O)[C@H](CCCNC(=N)N)NC(=O)[C@H](CCC(N)=O)NC(=O)[C@@H](NC(=O)[C@H](C)NC(=O)[C@@H]1CSSC[C@H](NC(=O)[C@H](CCCNC(=N)N)NC(=O)CC[C@H](NC(=O)CCCCCCCCCCCCCCCCCCC(=O)O)C(=O)O)C(=O)N[C@@H](CC(N)=O)C(=O)N[C@@H]([C@@H](C)O)C(=O)N[C@@H](C)C(=O)N[C@@H]([C@@H](C)O)C(=O)N1)[C@@H](C)O)[C@@H](C)O)C(C)C)[C@@H](C)O)C(N)=O [Compound 99, [19CD]-isoGlu-RC()NTATC()ATQRLAEFLHRSSNNF-Gly(Me)-A-Ile(Me)-LSSTNVGSNTI-NH2] ({C20 diacid-γGlu}-RCNTATCATQRLAEFLHRSSNNF[Sar]A[NMeI]LSSTNVGSNTI-NH2; disulfide 2-7)
Solubility, Acetate buffer pH 4 [1]: SS (SS indicates solubility ≥ 1mg/ml) | Solubility, Acetate buffer pH 5 [1]: SS (SS indicates solubility ≥ 1mg/ml) | Solubility, Histidine buffer pH 6 [1]: SS (SS indicates solubility ≥ 1mg/ml) | Solubility, Histidine buffer pH 7 [1]: SS (SS indicates solubility ≥ 1mg/ml) | Solubility, Phosphate buffer pH 6 [1]: II (II indicates solubility ≤ 1 mg/ml) | Solubility, Phosphate buffer pH 7 [1]: SS (SS indicates solubility ≥ 1mg/ml) | Solubility, Phosphate buffer pH 7.5 [1]: SS (SS indicates solubility ≥ 1mg/ml) | EC50 [2]: 270 pM | EC50 [3]: 2200 pM

CC[C@H](C)[C@@H](C(=O)N[C@@H](CC(C)C)C(=O)N[C@@H](CO)C(=O)N[C@@H](CO)C(=O)N[C@H](C(=O)N[C@@H](CCC(=O)O)C(=O)N[C@H](C(=O)NCC(=O)N[C@@H](CO)C(=O)N[C@@H](CCC(=O)O)C(=O)N[C@H](C(=O)N1CCC[C@H]1C(N)=O)[C@@H](C)O)C(C)C)[C@@H](C)O)N(C)C(=O)[C@H](C)NC(=O)CN(C)C(=O)[C@H](Cc1ccccc1)NC(=O)[C@H](CO)NC(=O)[C@H](CO)NC(=O)[C@H](CO)NC(=O)[C@H](CO)NC(=O)[C@H](CCCNC(=N)N)NC(=O)[C@H](Cc1c[nH]cn1)NC(=O)[C@H](CC(C)C)NC(=O)[C@H](Cc1ccccc1)NC(=O)[C@H](CCC(=O)O)NC(=O)[C@H](C)NC(=O)[C@H](CC(C)C)NC(=O)[C@H](CCCNC(=N)N)NC(=O)[C@H](CCC(=O)O)NC(=O)[C@@H](NC(=O)[C@H](C)NC(=O)[C@@H]1CSSC[C@H](NC(=O)[C@H](CCCNC(=N)N)NC(=O)CC[C@H](NC(=O)CCCCCCCCCCCCCCCCCCC(=O)O)C(=O)O)C(=O)N[C@@H](CC(=O)O)C(=O)N[C@@H]([C@@H](C)O)C(=O)N[C@@H](C)C(=O)N[C@@H]([C@@H](C)O)C(=O)N1)[C@@H](C)O [Compound 137, [19CD]-isoGlu-RC()DTATC()ATERLAEFLHRSSSSF-Gly(Me)-A-Ile(Me)-LSSTEVGSETP-NH2] ({C20 diacid-γGlu}-RCDTATCATERLAEFLHRSSSSF[Sar]A[NMeI]LSSTEVGSETP-NH2; disulfide 2-7)
Solubility, Acetate buffer pH 4 [1]: SS (SS indicates solubility ≥ 1mg/ml) | Solubility, Acetate buffer pH 5 [1]: SS (SS indicates solubility ≥ 1mg/ml) | Solubility, Histidine buffer pH 6 [1]: SS (SS indicates solubility ≥ 1mg/ml) | Solubility, Histidine buffer pH 7 [1]: SS (SS indicates solubility ≥ 1mg/ml) | Solubility, Phosphate buffer pH 6 [1]: SS (SS indicates solubility ≥ 1mg/ml) | Solubility, Phosphate buffer pH 7 [1]: SS (SS indicates solubility ≥ 1mg/ml) | Solubility, Phosphate buffer pH 7.5 [1]: SS (SS indicates solubility ≥ 1mg/ml) | EC50 ([2]; cAMP induction in COS7 cells expressing hCTR2, average of a minimum of 3 determinations, read-out: hCTR2 EC50): 240 pM | EC50 ([3]; cAMP induction in COS7 cells expressing hAMYR3, average of a minimum of 3 determinations, read-out: hAMY R3 EC50): 860 pM

CC[C@H](C)[C@@H](C(=O)N[C@@H](CC(C)C)C(=O)N[C@@H](CO)C(=O)N[C@@H](CO)C(=O)N[C@H](C(=O)N[C@@H](CC(N)=O)C(=O)N[C@H](C(=O)NCC(=O)N[C@@H](CO)C(=O)N[C@@H](CC(N)=O)C(=O)N[C@H](C(=O)N1CCC[C@H]1C(N)=O)[C@@H](C)O)C(C)C)[C@@H](C)O)N(C)C(=O)[C@H](C)NC(=O)CN(C)C(=O)[C@H](Cc1ccccc1)NC(=O)[C@H](CC(N)=O)NC(=O)[C@H](CC(N)=O)NC(=O)[C@H](CO)NC(=O)[C@H](CO)NC(=O)[C@H](CCCNC(=N)N)NC(=O)[C@H](Cc1c[nH]cn1)NC(=O)[C@H](CC(C)C)NC(=O)[C@H](Cc1ccccc1)NC(=O)[C@H](CCC(=O)O)NC(=O)[C@H](C)NC(=O)[C@H](CC(C)C)NC(=O)[C@H](CCCNC(=N)N)NC(=O)[C@H](CCC(N)=O)NC(=O)[C@@H](NC(=O)[C@H](C)NC(=O)[C@@H]1CSSC[C@H](NC(=O)[C@H](CCCNC(=N)N)NC(=O)[C@H](CCCCN)NC(=O)CC[C@H](NC(=O)CCCCCCCCCCCCCCCCCCC(=O)O)C(=O)O)C(=O)N[C@@H](CC(N)=O)C(=O)N[C@@H]([C@@H](C)O)C(=O)N[C@@H](C)C(=O)N[C@@H]([C@@H](C)O)C(=O)N1)[C@@H](C)O [Compound 84, [19CD]-isoGlu-KRC()NTATC()ATQRLAEFLHRSSNNF-Gly(Me)-A-Ile(Me)-LSSTNVGSNTP-NH2] ({C20 diacid-γGlu}-KRCNTATCATQRLAEFLHRSSNNF[Sar]A[NMeI]LSSTNVGSNTP-NH2; disulfide 3-8)
Solubility, Acetate buffer pH 4 [1]: SS (SS indicates solubility ≥ 1mg/ml) | Solubility, Acetate buffer pH 5 [1]: SS (SS indicates solubility ≥ 1mg/ml) | Solubility, Histidine buffer pH 6 [1]: SS (SS indicates solubility ≥ 1mg/ml) | Solubility, Histidine buffer pH 7 [1]: SS (SS indicates solubility ≥ 1mg/ml) | Solubility, Phosphate buffer pH 6 [1]: SS (SS indicates solubility ≥ 1mg/ml) | Solubility, Phosphate buffer pH 7 [1]: SS (SS indicates solubility ≥ 1mg/ml) | Solubility, Phosphate buffer pH 7.5 [1]: SS (SS indicates solubility ≥ 1mg/ml) | EC50 [2]: 110 pM | EC50 [3]: 100 pM
